The text below walks through data of ChEMBL document CHEMBL4400545 (Bioorg Med Chem, 2019).

For the assay, the target named is Sodium- and chloride-dependent GABA transporter 1 (Mus musculus) (UniProt P31648). As to the kind of experiment: Inhibition of mouse GAT-1 assessed as percentage of remaining specific binding of NO711 at 1 uM after 4 hrs by LC-ESI-MS/ms analysis relative to control.
Turning to `CC(C=O)(CCC#N)c1ccccc1` (configuration not stated), the Activity worked out at 92%.

`COc1ccc(C=O)cc1`: the Activity came out at 89%.

Consider `COc1ccccc1C=O`, for which the Activity amounted to 89%.

Consider `Cc1ccccc1-c1ncccc1C=O`, for which the Activity turned out to be 87%.

Consider `Cc1ccsc1-c1sc(C=O)cc1C`, for which the Activity came out at 97%.

For the compound `Cc1noc(-c2ccccc2C=O)n1`, the Activity came out at 97%.

With `Cc1onc(-c2ccc(Cl)cc2)c1C=O`, the Activity amounted to 92%.

Take `O=CC(c1ccccc1)c1ccccc1`: the Activity was found to be 90%.

As to `O=CC1CC2C=CC1C2` (configuration not stated), the Activity is 85%.

On to `O=Cc1c2ccccc2cc2ccccc12`, for which the Activity came out at 87%.

Turning to `O=Cc1c[nH]c2ncccc12`, the Activity is 85%.

As for `O=Cc1c[nH]nc1-c1ccc(F)cc1`, the Activity turned out to be 92%.

With `O=Cc1cc(F)ccc1-c1ccc(Cl)cc1Cl`, the Activity came to 82%.

Take `O=Cc1cc(F)ccc1-c1ccccc1`: the Activity worked out at 80%.

`O=Cc1cc(F)ccc1-c1ccccc1Cl`: the Activity was 80%.

Regarding `O=Cc1cc(F)ccc1-c1ccccc1F`, the Activity came to 80%.

On to `O=Cc1cc2c(cc1-c1ccc(Cl)cc1Cl)OCO2`, for which the Activity was 92%.

For `O=Cc1cc2c(cc1-c1ccccc1)OCO2`, the Activity worked out at 92%.

Regarding `O=Cc1cc2c(cc1-c1ccccc1Cl)OCO2`, the Activity amounted to 92%.

Consider `O=Cc1cc2c(cc1-c1ccccc1F)OCO2`, for which the Activity was 92%.

Turning to `O=Cc1ccc(-c2ccc(C(F)(F)F)cc2Cl)o1`, the Activity amounted to 82%.

In the case of `O=Cc1ccc(-c2ccccc2)cc1`, the Activity turned out to be 90%.

As for `O=Cc1ccc(-c2ccccc2OC(F)(F)F)o1`, the Activity stood at 82%.

Take `O=Cc1ccc(Br)cn1`: the Activity came out at 92%.

On to `O=Cc1ccc(Br)nc1`, for which the Activity stood at 92%.

For `O=Cc1ccc(C#Cc2ccccc2)s1`, the Activity was found to be 94%.

On to `O=Cc1ccc(O)cc1`, for which the Activity came to 89%.

`O=Cc1ccc(OCc2ccccc2)cc1`: the Activity is 90%.

In the case of `O=Cc1ccc(Oc2ccccc2)cc1`, the Activity worked out at 90%.

As for `O=Cc1ccc([N+](=O)[O-])cc1`, the Activity turned out to be 92%.

As to `O=Cc1ccc2c(c1)Cc1ccccc1-2`, the Activity is 88%.

Regarding `O=Cc1ccc2ccccc2n1`, the Activity came to 87%.

Take `O=Cc1cccc(Br)n1`: the Activity amounted to 92%.

For the compound `O=Cc1cccc(Oc2ccccc2)c1`, the Activity is 90%.

Consider `O=Cc1cccc([N+](=O)[O-])c1`, for which the Activity worked out at 92%.

Take `O=Cc1cccc2c1OCO2`: the Activity amounted to 80%.

For `O=Cc1ccccc1`, the Activity is 89%.

On to `O=Cc1ccccc1-c1c(F)cccc1F`, for which the Activity came to 88%.

Turning to `O=Cc1ccccc1-c1cc(F)ccc1F`, the Activity was 88%.

In the case of `O=Cc1ccccc1-c1ccc(Cl)cc1`, the Activity is 92%.

Regarding `O=Cc1ccccc1-c1ccc(Cl)cc1Cl`, the Activity is 93%.

As to `O=Cc1ccccc1-c1ccc(F)cc1`, the Activity was 92%.

In the case of `O=Cc1ccccc1-c1ccc(F)cc1Cl`, the Activity was found to be 93%.

Take `O=Cc1ccccc1-c1ccc2ccccc2c1`: the Activity came out at 86%.

`O=Cc1ccccc1-c1cccc(Cl)c1`: the Activity stood at 92%.

On to `O=Cc1ccccc1-c1cccc(F)c1`, for which the Activity came to 92%.

Turning to `O=Cc1ccccc1-c1cccc(F)c1F`, the Activity was 88%.

With `O=Cc1ccccc1-c1cccc2ccccc12`, the Activity came out at 85%.

As to `O=Cc1ccccc1-c1ccccc1`, the Activity is 90%.

On to `O=Cc1ccccc1-c1ccccc1Cl`, for which the Activity amounted to 93%.

Regarding `O=Cc1ccccc1-c1ccccc1F`, the Activity came to 93%.

As for `O=Cc1ccccc1-c1cccnc1`, the Activity worked out at 88%.

On to `O=Cc1ccccc1-c1ccco1`, for which the Activity was found to be 80%.

Turning to `O=Cc1ccccc1-c1cccs1`, the Activity was 92%.

As for `O=Cc1ccccc1-n1cccc1`, the Activity is 97%.

For the compound `O=Cc1ccccc1-n1cccn1`, the Activity stood at 88%.

`O=Cc1ccccc1OCc1ccccc1`: the Activity came out at 90%.

For `O=Cc1ccccc1Oc1ccccc1`, the Activity amounted to 88%.

Take `O=Cc1ccccc1[N+](=O)[O-]`: the Activity amounted to 92%.

As for `O=Cc1ccccn1`, the Activity stood at 85%.

In the case of `O=Cc1cccn1-c1ccc(C(F)(F)F)cc1`, the Activity is 82%.

Regarding `O=Cc1cccnc1`, the Activity was 94%.

Regarding `O=Cc1cccnc1-c1ccc(Cl)cc1`, the Activity turned out to be 87%.

In the case of `O=Cc1cccnc1-c1ccc(Cl)cc1Cl`, the Activity was 86%.

For `O=Cc1cccnc1-c1cccc(Cl)c1`, the Activity is 80%.

For `O=Cc1cccnc1-c1cccc(F)c1`, the Activity worked out at 87%.

Regarding `O=Cc1cccnc1-c1ccccc1`, the Activity was 87%.

With `O=Cc1cccnc1-c1ccccc1Cl`, the Activity worked out at 97%.

Consider `O=Cc1cccnc1-c1ccccc1F`, for which the Activity was 80%.

For the compound `O=Cc1cccnc1Br`, the Activity was determined as 92%.

Consider `O=Cc1ccnc2ccccc12`, for which the Activity was found to be 87%.

Take `O=Cc1csc2ccccc12`: the Activity came to 94%.

Turning to `O=Cc1sccc1-c1ccc(Cl)cc1Cl`, the Activity worked out at 86%.

Regarding `O=Cc1sccc1-c1ccc(F)cc1Cl`, the Activity came out at 86%.

For `O=Cc1sccc1-c1ccccc1`, the Activity stood at 94%.

As to `O=Cc1sccc1-n1cccc1`, the Activity was found to be 92%.

In the case of `COc1ccc(/C=N/OCCN2CCCC(C(=O)O)C2)c2ccccc12` (racemic), the Activity stood at 61%.

Take `COc1ccc(/C=N/OCCN2CCCC(C(=O)O)C2)cc1` (racemic): the Activity was 74%.

Consider `COc1ccccc1/C=N/OCCN1CCCC(C(=O)O)C1` (racemic), for which the Activity came out at 74%.

Consider `Cc1ccc(/C=N/OCCN2CCCC(C(=O)O)C2)c2ccccc12` (racemic), for which the Activity came out at 60%.

On to `Cc1ccsc1-c1sc(/C=N/OCCN2CCCC(C(=O)O)C2)cc1C` (racemic), for which the Activity turned out to be 33%.

Take `Cc1noc(-c2ccccc2/C=N/OCCN2CCCC(C(=O)O)C2)n1` (racemic): the Activity was 33%.

In the case of `O=C(O)C1CCCN(CCO/N=C/C2CC3C=CC2C3)C1` (racemic), the Activity worked out at 45%.

Take `O=C(O)C1CCCN(CCO/N=C/COCc2ccccc2)C1` (racemic): the Activity is 60%.

On to `O=C(O)C1CCCN(CCO/N=C/c2c3ccccc3cc3ccccc23)C1` (racemic), for which the Activity is 62%.

Consider `O=C(O)C1CCCN(CCO/N=C/c2c[nH]c3ncccc23)C1` (racemic), for which the Activity was found to be 45%.

Take `O=C(O)C1CCCN(CCO/N=C/c2cc3ccccc3c3ccccc23)C1` (racemic): the Activity was determined as 62%.

`O=C(O)C1CCCN(CCO/N=C/c2ccc(Br)cn2)C1` (racemic): the Activity turned out to be 71%.

With `O=C(O)C1CCCN(CCO/N=C/c2ccc(Br)nc2)C1` (racemic), the Activity is 71%.

For `O=C(O)C1CCCN(CCO/N=C/c2ccc(C#Cc3ccccc3)s2)C1` (racemic), the Activity was found to be 48%.

As for `O=C(O)C1CCCN(CCO/N=C/c2ccc(F)c3ccccc23)C1` (racemic), the Activity was 60%.

Take `O=C(O)C1CCCN(CCO/N=C/c2ccc(O)c3ccccc23)C1` (racemic): the Activity came out at 61%.

As for `O=C(O)C1CCCN(CCO/N=C/c2ccc(O)cc2)C1` (racemic), the Activity was 74%.

Regarding `O=C(O)C1CCCN(CCO/N=C/c2ccc(OCc3ccccc3)cc2)C1` (racemic), the Activity came to 29%.

As to `O=C(O)C1CCCN(CCO/N=C/c2ccc(Oc3ccccc3)cc2)C1` (racemic), the Activity was 29%.

Consider `O=C(O)C1CCCN(CCO/N=C/c2ccc([N+](=O)[O-])cc2)C1` (racemic), for which the Activity came to 60%.

`O=C(O)C1CCCN(CCO/N=C/c2ccc3ccccc3c2)C1` (racemic): the Activity worked out at 61%.

With `O=C(O)C1CCCN(CCO/N=C/c2ccc3ccccc3n2)C1` (racemic), the Activity was 62%.

On to `O=C(O)C1CCCN(CCO/N=C/c2cccc(Br)n2)C1` (racemic), for which the Activity is 71%.

As to `O=C(O)C1CCCN(CCO/N=C/c2cccc(Oc3ccccc3)c2)C1` (racemic), the Activity was found to be 29%.

For the compound `O=C(O)C1CCCN(CCO/N=C/c2cccc([N+](=O)[O-])c2)C1` (racemic), the Activity came out at 60%.

As for `O=C(O)C1CCCN(CCO/N=C/c2cccc3ccccc23)C1` (racemic), the Activity is 61%.

As to `O=C(O)C1CCCN(CCO/N=C/c2ccccc2)C1` (racemic), the Activity stood at 74%.

For the compound `O=C(O)C1CCCN(CCO/N=C/c2ccccc2-c2cccc3ccccc23)C1` (racemic), the Activity was 45%.

As to `O=C(O)C1CCCN(CCO/N=C/c2ccccc2-n2cccc2)C1` (racemic), the Activity was found to be 33%.

With `O=C(O)C1CCCN(CCO/N=C/c2ccccc2OCc2ccccc2)C1` (racemic), the Activity was 29%.

`O=C(O)C1CCCN(CCO/N=C/c2ccccc2[N+](=O)[O-])C1` (racemic): the Activity is 60%.

For the compound `O=C(O)C1CCCN(CCO/N=C/c2ccccn2)C1` (racemic), the Activity worked out at 45%.

On to `O=C(O)C1CCCN(CCO/N=C/c2cccnc2)C1` (racemic), for which the Activity turned out to be 48%.

For `O=C(O)C1CCCN(CCO/N=C/c2cccnc2-c2ccccc2)C1` (racemic), the Activity amounted to 22%.

As to `O=C(O)C1CCCN(CCO/N=C/c2cccnc2-c2ccccc2Cl)C1` (racemic), the Activity came to 33%.

For `O=C(O)C1CCCN(CCO/N=C/c2cccnc2Br)C1` (racemic), the Activity amounted to 71%.

Regarding `O=C(O)C1CCCN(CCO/N=C/c2ccnc3ccccc23)C1` (racemic), the Activity amounted to 62%.

With `O=C(O)C1CCCN(CCO/N=C/c2ccncc2)C1` (racemic), the Activity was 60%.

Regarding `O=C(O)C1CCCN(CCO/N=C/c2csc3ccccc23)C1` (racemic), the Activity was 48%.

As to `O=C(O)C1CCCN(CCO/N=C/c2sccc2-c2ccccc2)C1` (racemic), the Activity was 48%.

As for `O=C(O)C1CCCN(CCO/N=C/c2sccc2-n2cccc2)C1` (racemic), the Activity came out at 60%.
